In patent publication US20160037780A1, “BORON CONTAINING COMPOUNDS AND USES THEREOF” (EMPIRE TECHNOLOGY DEVELOPMENT LLC, priority 2013, published 2016):

What was measured:
Gloeophyllum trabeum = experiment: Soil block test (AWPA E10-10), decay resistance of treated wood blocks; type: cell-based; conditions: 12 weeks at 28° C., mean of 6 blocks (SD)
Procedure: Soil Block Test. The soil block test (AWPA, 2010) is a relatively rapid laboratory method for assessing the decay resistance of wood-based materials under conditions that favor rapid fungal attack of wood. Soil block tests were conducted upon blocks treated with compounds and compositions described herein. Leachates from the blocks were collected prior to fungal exposure and analyzed.
Ponderosa pine (Pinus ponderosa L) sapwood blocks (19 mm cubes) were oven dried (60° C.) and weighed. The blocks were then randomly allocated, in groups of 12, to the various treatment groups. Treatment solutions containing actives (e.g., the compounds and compositions described herein) were supplied as 10% active ingredient concentrates. These solutions were then diluted with toluene to produce treatment solutions containing 0.1, 0.5, 1.0 and 3.0% active ingredient solutions. The blocks from a given group were placed in a container and covered with an excess of a given treatment solution. This container was placed in a desiccator. A vacuum was drawn over the vessel and then released. The blocks were removed from the treatment solution and blotted to remove excess solution before being weighed. The difference between the original dry weight and the wet weight was used to calculated net solution uptake. The blocks were stored wet for 3 days at 20-23° C. to allow any fixation reactions to proceed before being oven dried at 60° C. and weighed. The blocks were then conditioned to constant weight at 23° C. and 65% relative humidity prior to further testing.
(§1) Six blocks from each treatment group were subjected to a 14-day leaching procedure as described AWPA Standard E11-10 from the American Wood Preservers' Association's (AWPA) “Standard method of determining the leachability of wood preservatives” in the AWPA Book of Standards, Birmingham, Ala., 2010. The blocks were immersed in an excess of water, and subjected to a short vacuum. The water was then changed after 6, 24, and 48 hours of immersion and at 48 hour intervals over a total of 14 days. An aliquot of the leachate was retained at each time point for later analysis. The leached blocks were then reconditioned to constant weight at 23° C. and 65% relative humidity. Leachate collected at each time point was analyzed for boron using the azomethine H method as described in AWPA Standard A2-10 Method 16. All of the blocks were briefly soaked with water prior to being placed in plastic bags and sterilized by exposure to 2.5 mrad of ionizing radiation from a cobalt 60 source.
Decay chambers were prepared by half filling 454 ml French squares with moisture forest loam and placing a western hemlock feeder strip on the soil surface as described in AWPA Standard E10-10 “Standard method of testing wood preservatives by laboratory soil-block cultures.” The bottles were then loosely capped and autoclaved for 45 minutes at 121° C.
After cooling, the bottles were inoculated with 2 to 3 mm diameter malt agar disks cut from the actively growing edges of cultures of the test fungus, Gloeophyllum trabeum (Pers. ex Fr.) Murr. (Isolate: Madison 617). This fungus causes a brown rot of wood and tends to have some tolerance to boron compounds. The agar plugs were placed on the edges of the wood feeder strips, and the jars were loosely capped (to allow air exchange), and incubated until the feeder strip was thoroughly covered with fungal mycelium. The sterile test blocks were then placed on the surfaces of the feeder strips, the bottles were loosely capped and incubated at 28° C. for 12 weeks.
At the end of the incubation period, the blocks were removed, scraped clean of adhering mycelium and weighed to determine wet weight. The blocks were then oven dried (60° C.) and weighed. Differences between initial and final oven-dry weight were used as a measure of the decay resistance of each material.

[1] = 14-day leaching procedure (AWPA E11-10), boron in leachate by azomethine H method; type: physicochemical; conditions: 14-day water leaching of treated blocks
Procedure: as §1

Borate
Average Wood Weight Loss (Gloeophyllum trabeum; 0.1% B, Leaching + (first line of treatment)): 50.8 (4.2) % | Average Wood Weight Loss (Gloeophyllum trabeum; 0.1% B, second line of treatment, Leaching +): 53.8 (11.5) % | Average Wood Weight Loss (Gloeophyllum trabeum; 0.5% B, Leaching + (first line of treatment)): 46.5 (3.3) % | Average Wood Weight Loss (Gloeophyllum trabeum; 0.5% B, second line of treatment, Leaching +): 46.3 (2.4) % | Average Wood Weight Loss (Gloeophyllum trabeum; 1.0% B, Leaching + (first line of treatment)): 53.6 (4.3) % | Average Wood Weight Loss (Gloeophyllum trabeum; 1.0% B, second line of treatment, Leaching +): 48.3 (8.7) % | Average Wood Weight Loss (Gloeophyllum trabeum; 3.0% B, Leaching + (first line of treatment)): 51.8 (8.3) % | Average Wood Weight Loss (Gloeophyllum trabeum; 3.0% B, second line of treatment, Leaching printed + (probably non-leached)): 27.3 (6.9) % | Boron concentrations in leachates (rank among formulations) [1]: highest
